Results as given in ChEMBL document CHEMBL1201862, “PubChem BioAssay data set” (2004).
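48-hour exposure; five concentrations; linearly interpolated endpoints. Here, GI50 denotes the concentration required for 50% inhibition of growth.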 Active and inactive are the calls of the source. No stated cut-off is given here; in the data, active = GI50 up to about 1.1 µM and inactive = higher.

Assays:
Test in all cases: growth of human tumour cells (NCI), 48 h
EKVX = test system: EKVX
SW-620 = test system: SW-620
HCT-116 = test system: HCT-116
SK-MEL-28 = test system: SK-MEL-28
SNB-75 = test system: SNB-75
RXF 393 = test system: RXF 393
SK-OV-3 = test system: SK-OV-3
SK-MEL-2 = test system: SK-MEL-2
K562 = test system: K562
PC-3 = test system: PC-3
SF-295 = test system: SF-295
MDA-MB-435 = test system: MDA-MB-435
SR = test system: SR
SN12C = test system: SN12C
SNB-19 = test system: SNB-19
NCI-H23 = test system: NCI-H23
MDA-MB-231 = test system: MDA-MB-231
IGROV-1 = test system: IGROV-1
T47D = test system: T47D
COLO 205 = test system: COLO 205
HOP-62 = test system: HOP-62
OVCAR-4 = test system: OVCAR-4
LOX IMVI = test system: LOX IMVI
NCI-H522 = test system: NCI-H522
BT-549 = test system: BT-549
OVCAR-5 = test system: OVCAR-5
SF-268 = test system: SF-268
HT-29 = test system: HT-29
MCF7 = test system: MCF7
A498 = test system: A498
UO-31 = test system: UO-31
NCI/ADR-RES = test system: NCI/ADR-RES
CCRF-CEM = test system: CCRF-CEM
786-0 = test system: 786-0
HCT-15 = test system: HCT-15
MDA-N = test system: MDA-N
CAKI-1 = test system: CAKI-1
TK-10 = test system: TK-10
U-251 = test system: U-251
OVCAR-3 = test system: OVCAR-3
UACC-62 = test system: UACC-62
OVCAR-8 = test system: OVCAR-8
ACHN = test system: ACHN
KM12 = test system: KM12
NCI-H226 = test system: NCI-H226
HCC 2998 = test system: HCC 2998
DU-145 = test system: DU-145
A549 = test system: A549
Malme-3M = test system: Malme-3M
MOLT-4 = test system: MOLT-4
SF-539 = test system: SF-539
RPMI-8226 = test system: RPMI-8226
SK-MEL-5 = test system: SK-MEL-5
Hs-578T = test system: Hs-578T
NCI-H460 = test system: NCI-H460
UACC-257 = test system: UACC-257
M14 = test system: M14
HOP-92 = test system: HOP-92
HL-60 = test system: HL-60

CCCCCCCCCC(=O)NCCc1c[nH]c2ccc(OC)cc12
GI50 (EKVX): 28 µM (inactive) | GI50 (SW-620): 18.2 µM (inactive) | GI50 (HCT-116): 21.4 µM (inactive) | GI50 (SK-MEL-28): 17.9 µM (inactive) | GI50 (SNB-75): 20.6 µM (inactive) | GI50 (RXF 393): 19 µM (inactive) | GI50 (SK-OV-3): 17.4 µM (inactive) | GI50 (SK-MEL-2): 16.1 µM (inactive) | GI50 (K562): 55 µM (inactive) | GI50 (PC-3): 15.3 µM (inactive) | GI50 (SF-295): 17.4 µM (inactive) | GI50 (MDA-MB-435): 24.5 µM (inactive) | GI50 (SR): 40.9 µM (inactive) | GI50 (SN12C): 17.4 µM (inactive) | GI50 (SNB-19): 16.5 µM (inactive) | GI50 (NCI-H23): 17.3 µM (inactive) | GI50 (MDA-MB-231): 15.1 µM (inactive) | GI50 (IGROV-1): 14.9 µM (inactive) | GI50 (T47D): 19.7 µM (inactive) | GI50 (COLO 205): 23.8 µM (inactive) | GI50 (HOP-62): 16.4 µM (inactive) | GI50 (OVCAR-4): > 100 µM (inactive) | GI50 (LOX IMVI): 13.8 µM (inactive) | GI50 (NCI-H522): 16 µM (inactive) | GI50 (BT-549): 18.6 µM (inactive) | GI50 (OVCAR-5): 23.9 µM (inactive) | GI50 (SF-268): 17.7 µM (inactive) | GI50 (HT-29): 23.2 µM (inactive) | GI50 (MCF7): 17.5 µM (inactive) | GI50 (A498): 16.3 µM (inactive) | GI50 (UO-31): 12.7 µM (inactive) | GI50 (NCI/ADR-RES): 19.2 µM (inactive) | GI50 (CCRF-CEM): 7.26 µM (inactive) | GI50 (786-0): 19.2 µM (inactive) | GI50 (HCT-15): 19.1 µM | GI50 (MDA-N): 18.8 µM (inactive) | GI50 (CAKI-1): 25.4 µM (inactive) | GI50 (TK-10): 18.2 µM (inactive) | GI50 (U-251): 17 µM (inactive) | GI50 (OVCAR-3): 15.9 µM (inactive) | GI50 (UACC-62): 16.3 µM (inactive) | GI50 (OVCAR-8): 16.6 µM (inactive) | GI50 (ACHN): 16.7 µM (inactive) | GI50 (KM12): 27.9 µM (inactive) | GI50 (NCI-H226): 19.9 µM (inactive) | GI50 (HCC 2998): 19.5 µM (inactive) | GI50 (DU-145): 20.2 µM (inactive) | GI50 (A549): 19 µM (inactive) | GI50 (Malme-3M): 18.2 µM (inactive) | GI50 (MOLT-4): 64.7 µM (inactive) | GI50 (SF-539): 23.2 µM (inactive) | GI50 (RPMI-8226): 21.1 µM (inactive) | GI50 (SK-MEL-5): 18.5 µM (inactive) | GI50 (Hs-578T): 20.1 µM (inactive) | GI50 (NCI-H460): 23.3 µM (inactive) | GI50 (UACC-257): 20.8 µM (inactive) | GI50 (M14): 17.9 µM (inactive) | GI50 (HOP-92): 16.2 µM (inactive)

CC(=O)O[C@H]1CC[C@@]2(C)C(=CC[C@@H]3[C@@H]2CC[C@](C)(c2nnc(C)o2)[C@H]3CC#N)C1
GI50 (EKVX): > 100 µM (inactive) | GI50 (SW-620): > 100 µM (inactive) | GI50 (HCT-116): > 100 µM (inactive) | GI50 (SNB-75): 51.6 µM (inactive) | GI50 (RXF 393): > 100 µM (inactive) | GI50 (SK-OV-3): > 100 µM (inactive) | GI50 (SK-MEL-2): > 100 µM (inactive) | GI50 (K562): > 100 µM (inactive) | GI50 (PC-3): > 100 µM (inactive) | GI50 (SF-295): > 100 µM (inactive) | GI50 (MDA-MB-435): > 100 µM (inactive) | GI50 (SR): > 100 µM (inactive) | GI50 (SN12C): > 100 µM (inactive) | GI50 (SNB-19): > 100 µM (inactive) | GI50 (NCI-H23): > 100 µM (inactive) | GI50 (MDA-MB-231): > 100 µM (inactive) | GI50 (IGROV-1): > 100 µM (inactive) | GI50 (T47D): > 100 µM (inactive) | GI50 (COLO 205): > 100 µM (inactive) | GI50 (HOP-62): > 100 µM (inactive) | GI50 (OVCAR-4): > 100 µM (inactive) | GI50 (LOX IMVI): > 100 µM (inactive) | GI50 (NCI-H522): > 100 µM (inactive) | GI50 (BT-549): > 100 µM (inactive) | GI50 (OVCAR-5): > 100 µM (inactive) | GI50 (SF-268): > 100 µM (inactive) | GI50 (HT-29): > 100 µM (inactive) | GI50 (MCF7): > 100 µM (inactive) | GI50 (A498): > 100 µM (inactive) | GI50 (UO-31): > 100 µM (inactive) | GI50 (NCI/ADR-RES): > 100 µM (inactive) | GI50 (CCRF-CEM): > 100 µM (inactive) | GI50 (786-0): > 100 µM (inactive) | GI50 (HCT-15): > 100 µM | GI50 (MDA-N): > 100 µM (inactive) | GI50 (CAKI-1): > 100 µM (inactive) | GI50 (TK-10): > 100 µM (inactive) | GI50 (U-251): > 100 µM (inactive) | GI50 (OVCAR-3): > 100 µM (inactive) | GI50 (UACC-62): > 100 µM (inactive) | GI50 (OVCAR-8): > 100 µM (inactive) | GI50 (ACHN): > 100 µM (inactive) | GI50 (KM12): > 100 µM (inactive) | GI50 (NCI-H226): > 100 µM (inactive) | GI50 (DU-145): > 100 µM (inactive) | GI50 (A549): > 100 µM (inactive) | GI50 (Malme-3M): > 100 µM (inactive) | GI50 (MOLT-4): > 100 µM (inactive) | GI50 (SF-539): > 100 µM (inactive) | GI50 (RPMI-8226): > 100 µM (inactive) | GI50 (SK-MEL-5): > 100 µM (inactive) | GI50 (Hs-578T): 0.0735 µM (active) | GI50 (HL-60): 61.9 µM (inactive) | GI50 (UACC-257): > 100 µM (inactive) | GI50 (M14): > 100 µM (inactive) | GI50 (HOP-92): > 100 µM (inactive)
